Patent US10766864B2, “Morphinan derivatives for the treatment of neuropathic pain” (Nektar Therapeutics, priority 2015, dated 2020)
Read-outs that look alike come from different tables or passages of the source.

Key:
NMDA receptor = test: Competitive radioligand binding at NMDA receptor ([3H] MK801), rat forebrain membranes; conditions: 0.2 nM [3H] MK801, reflects free base activity
Experimental: (§1) Receptor Binding at MOR and NMDA.
(§2) Affinities of various compounds were measured in vitro using competitive radioligand binding assays. Serial dilutions of test compounds were incubated with membranes prepared from CHO-K1 cells expressing the mu opioid receptor (MOR; for opioid receptor binding) or rat forebrain membranes (for NMDA receptor binding). 2 nM [^3H] Naloxone (MOR) or 0.2 nM [^3H] MK801 (NMDA) were used as the specific, competitive radioligands. 10 uM Naloxone (MOR), or 10 uM MK801 (NMDA) was used to determine non-specific binding. Bound radioactivity was measured using a scintillation counter & IC50 values for test compounds were determined by non-linear regression analysis using a one-site competition model (Graph Pad Prizm). Due to each test compound being solubilized in a buffered system for the assay, the results presented herein reflect the free base activity.

mu opioid receptor (MOR) = mu opioid receptor (MOR) (Homo sapiens (Human), UniProt P35372); test: Competitive radioligand binding at MOR ([3H] Naloxone)
Experimental: as §1, §2

[1] = membranes from CHO-K1 cells expressing MOR, 2 nM [3H] Naloxone, reflects free base activity, read-out: MOR IC50

For `COCCOCCOCCO[C@H]1CC[C@H]2[C@H]3Cc4ccc(OC)cc4[C@@]2(CCN3C)C1` [Compound 1, (6α)-3-methoxy-6-{2-[2-(2-methoxyethoxy)ethoxy]ethoxy}-17-methylmorphinan], the IC50 (NMDA receptor) was > 10000 nM and the IC50 (mu opioid receptor (MOR); [1]) was > 1000 nM.

For `COCCOCCOCCOCCOCCO[C@H]1CC[C@H]2[C@H]3Cc4ccc(OC)cc4[C@@]2(CCN3C)C1` [Compound 2, (6α)-3-methoxy-17-methyl-6-(2,5,8,11,14-pentaoxahexadecan-16-yloxy)morphinan], the IC50 (NMDA receptor) was > 10000 nM and the IC50 (mu opioid receptor (MOR); [1]) was > 1000 nM.

With `COCCOCCOCCN1CC[C@]23CC(=O)CC[C@H]2[C@H]1Cc1ccc(OC)cc13` [Compound 4, 3-methoxy-17-{2-[2-(2-methoxyethoxy)ethoxy]ethyl}morphinan-6-one] the IC50 (NMDA receptor) was > 10000 nM and the IC50 (mu opioid receptor (MOR); [1]) was > 1000 nM.

With `COCCOCCN1CC[C@]23CC(=O)CC[C@H]2[C@H]1Cc1ccc(OC)cc13` [Compound 5, 3-methoxy-17-[2-(2-methoxyethoxy)ethyl]morphinan-6-one] the IC50 (NMDA receptor) was > 10000 nM and the IC50 (mu opioid receptor (MOR)) was 100 to 1000 nM.

With `COCCOCCOCCN1CC[C@]23CC(=O)CC[C@H]2[C@H]1Cc1ccc(O)cc13` [Compound 6, 3-hydroxy-17-{2-[2-(2-methoxyethoxy)ethoxy]ethyl}morphinan-6-one] the IC50 (NMDA receptor) was > 10000 nM and the IC50 (mu opioid receptor (MOR)) was 100 to 1000 nM.

With `COCCOCCOCCOCCOCCOc1ccc2c(c1)[C@]13CCN(C)[C@H](C2)[C@@H]1CCC(=O)C3` [Compound 8, 17-methyl-3-(2,5,8,11,14-pentaoxahexadecan-16-yloxy)morphinan-6-one] the IC50 (NMDA receptor) was > 10000 nM and the IC50 (mu opioid receptor (MOR); [1]) was > 1000 nM.

`COCCOCCOCCO[C@H]1CC[C@H]2[C@H]3Cc4ccc(O)cc4[C@@]2(CCN3C)C1` [Compound 9, (6α)-6-{2-[2-(2-methoxyethoxy)ethoxy]ethoxy}-17-methylmorphinan-3-ol] was tested, and the IC50 (NMDA receptor) was > 10000 nM and the IC50 (mu opioid receptor (MOR)) was 10 to 100 nM.

In the case of `COCCOCCOCCOCCOCCO[C@H]1CC[C@H]2[C@H]3Cc4ccc(O)cc4[C@@]2(CCN3C)C1` [Compound 10, (6α)-17-methyl-6-(2,5,8,11,14-pentaoxahexadecan-16-yloxy)morphinan-3-ol], the IC50 (NMDA receptor) is reported as > 10000 nM and the IC50 (mu opioid receptor (MOR); [1]) is reported as 100 to 1000 nM.

`COCCN1CC[C@]23CCCC[C@H]2[C@H]1Cc1ccc(OC)cc13` [Compound 11, 3-methoxy-17-(2-methoxyethyl)-morphinan] was tested, and the IC50 (NMDA receptor) was 1000 to 10000 nM and the IC50 (mu opioid receptor (MOR)) was 100 to 1000 nM.

`COCCOCCOCCN1CC[C@]23CCCC[C@H]2[C@H]1Cc1ccc(OC)cc13` [Compound 13, 3-methoxy-17-{2-[2-(2-methoxyethoxy)ethoxy]ethyl}-morphinan] was tested, and the IC50 (NMDA receptor) was > 10000 nM and the IC50 (mu opioid receptor (MOR); [1]) was > 1000 nM.

In the case of `COCCOCCOCCOCCOCCOc1ccc2c(c1)[C@@]13CCCC[C@H]1[C@@H](C2)N(C)CC3` [Compound 14, 17-methyl-3-(2,5,8,11,14-pentaoxahexadecan-16-yloxy)morphinan], the IC50 (NMDA receptor) is reported as > 10000 nM and the IC50 (mu opioid receptor (MOR); [1]) is reported as > 1000 nM.

`CCNC(=O)N1CC[C@]23CCCC[C@H]2[C@H]1Cc1ccc(OC)cc13` [Compound 17, N-ethyl-3-methoxymorphinan-17-carboxamide] was tested, and the IC50 (NMDA receptor) was > 10000 nM and the IC50 (mu opioid receptor (MOR); [1]) was > 1000 nM.

With `COCCOc1c(OC)ccc2c1[C@@]13CCCC[C@H]1[C@@H](C2)N(C)CC3` [Compound 21, 3-methoxy-4-(2-methoxyethoxy)-17-methylmorphinan] the IC50 (mu opioid receptor (MOR)) was 100 to 1000 nM.

For `COCCNC(=O)Nc1ccc2c(c1)[C@@]13CCCC[C@H]1[C@@H](C2)N(C)CC3` [Compound 23, 1-(2-methoxyethyl)-3-(17-methylmorphinan-3-yl)urea], the IC50 (NMDA receptor) was > 10000 nM and the IC50 (mu opioid receptor (MOR)) was 100 to 1000 nM.

With `COc1ccc(C(=O)Nc2ccc3c(c2)[C@@]24CCCC[C@H]2[C@@H](C3)N(C)CC4)cc1` [Compound 24, 4-methoxy-N-((4bR,8aR,9R)-11-methyl-6,7,8,8a,9,10-hexahydro-5H-9,4b-(epiminoethano)phenanthren-3-yl)benzamide] the IC50 (NMDA receptor) was > 10000 nM and the IC50 (mu opioid receptor (MOR)) was 100 to 1000 nM.

For `COc1cccc(C(=O)Nc2ccc3c(c2)[C@@]24CCCC[C@H]2[C@@H](C3)N(C)CC4)c1` [Compound 25, 3-methoxy-N-((4bR,8aR,9R)-11-methyl-6,7,8,8a,9,10-hexahydro-5H-9,4b-(epiminoethano)phenanthren-3-yl)benzamide], the IC50 (NMDA receptor) was > 10000 nM and the IC50 (mu opioid receptor (MOR); [1]) was > 1000 nM.

In the case of `COc1ccccc1C(=O)Nc1ccc2c(c1)[C@@]13CCCC[C@H]1[C@@H](C2)N(C)CC3` [Compound 26, 2-methoxy-N-((4bR,8aR,9R)-11-methyl-6,7,8,8a,9,10-hexahydro-5H-9,4b-(epiminoethano)phenanthren-3-yl)benzamide], the IC50 (NMDA receptor) is reported as > 10000 nM and the IC50 (mu opioid receptor (MOR); [1]) is reported as > 1000 nM.

`COc1ccc(NC(=O)Nc2ccc3c(c2)[C@@]24CCCC[C@H]2[C@@H](C3)N(C)CC4)cc1` [Compound 27, 1-(4-methoxyphenyl)-3-(17-methylmorphinan-3-yl)urea] gave an IC50 (NMDA receptor) of 1000 to 10000 nM and an IC50 (mu opioid receptor (MOR)) of 10 to 100 nM.

With `COc1ccc(Nc2ccc3c(c2)[C@@]24CCCC[C@H]2[C@@H](C3)N(C)CC4)cc1` [Compound 28, N-(4-methoxyphenyl)-17-methylmorphinan-3-amine] the IC50 (NMDA receptor) was 1000 to 10000 nM and the IC50 (mu opioid receptor (MOR)) was 0.1 to 10 nM.

Molecule `COc1cccc(Nc2ccc3c(c2)[C@@]24CCCC[C@H]2[C@@H](C3)N(C)CC4)c1` [Compound 29, N-(3-methoxyphenyl)-17-methylmorphinan-3-amine] has an IC50 (NMDA receptor) of 1000 to 10000 nM and an IC50 (mu opioid receptor (MOR)) of 0.1 to 10 nM.

With `COCCO[C@@H]1CC[C@H]2[C@H]3Cc4ccc(O)cc4[C@@]2(CCN3C)C1` [Compound 31, (6β)-6-(2-methoxyethoxy)-17-methylmorphinan-3-ol] the IC50 (NMDA receptor) was 1000 to 10000 nM and the IC50 (mu opioid receptor (MOR)) was 0.1 to 10 nM.

For `CN1CC[C@]23CCCC[C@H]2[C@H]1Cc1ccc(Nc2ncccn2)cc13` [Compound 32, 17-methyl-N-(pyrimidin-2-yl)morphinan-3-amine], the IC50 (NMDA receptor) was 100 to 1000 nM and the IC50 (mu opioid receptor (MOR); [1]) was > 1000 nM.

With `COCCOCCOc1cccc(Nc2ccc3c(c2)[C@@]24CCCC[C@H]2[C@@H](C3)N(C)CC4)c1` [Compound 34, N-{3-[2-(2-methoxyethoxy)ethoxy]phenyl}-17-methylmorphinan-3-amine] the IC50 (NMDA receptor) was > 10000 nM and the IC50 (mu opioid receptor (MOR); [1]) was 0.1 to 10 nM.

`COCCOCCOc1ccccc1Nc1ccc2c(c1)[C@@]13CCCC[C@H]1[C@@H](C2)N(C)CC3` [Compound 35, N-{2-[2-(2-methoxyethoxy)ethoxy]phenyl}-17-methylmorphinan-3-amine] was tested, and the IC50 (NMDA receptor) was > 10000 nM and the IC50 (mu opioid receptor (MOR); [1]) was 100 to 1000 nM.

For `CN1CC[C@]23CCCC[C@H]2[C@H]1Cc1ccc(NS(C)(=O)=O)cc13` [Compound 37, N-(17-methylmorphinan-3-yl)methanesulfonamide], the IC50 (NMDA receptor) was 1000 to 10000 nM and the IC50 (mu opioid receptor (MOR)) was 100 to 1000 nM.

With `COc1ccc(NC(=O)c2ccc3c(c2)[C@@]24CCCC[C@H]2[C@@H](C3)N(C)CC4)cc1` [Compound 38, N-(4-methoxyphenyl)-17-methylmorphinan-3-carboxamide] the IC50 (NMDA receptor) was > 10000 nM and the IC50 (mu opioid receptor (MOR)) was 100 to 1000 nM.

With `COCCOCCNC(=O)c1ccc2c(c1)[C@@]13CCCC[C@H]1[C@@H](C2)N(C)CC3` [Compound 39, N-[2-(2-methoxyethoxy)ethyl]-17-methylmorphinan-3-carboxamide] the IC50 (NMDA receptor) was > 10000 nM and the IC50 (mu opioid receptor (MOR)) was 100 to 1000 nM.

For `COCCOCCOCCOCCOCCOCCNc1nc2cc3c(cc2s1)C[C@@H]1[C@@H]2CCCC[C@]32CCN1C` [Compound 70, (4aR,5R,11bR)-14-methyl-N-(2,5,8,11,14,17-hexaoxanonadecan-19-yl)-2,3,4,4a,5,6-hexahydro-1H-5,11b-(epiminoethano)phenanthro[3,2-d][1,3]thiazol-9-amine], the IC50 (NMDA receptor) was > 10000 nM.
